Data from patent US11427606B2, “Azithromycin derivatives containing a phosphonium ion as anticancer agents” (Rising Tide Foundation, priority 2017, dated 2022).

Test system: MDA-231 cancer cells
Assay: Inhibition of proliferation assay: cell confluence (IncuCyte imaging)
Type: cell-based
Details: compound at 10 uM; MDA-231 cells; IncuCyte images every 3 h over 4-5 d; relative confluence normalised to time zero
Text: Inhibition of Proliferation Assay
The confluence value is a surrogate for cell proliferation and growth. The value is expressed as a percent confluence, which represents the fraction of culture dish-surface that is occupied by cells. As the number of cells in the dish increases over time due to proliferation, so will their coverage of that surface increase. Expansion of the cell population on the cell culture-dish surface and confluence have mostly a linear relationship until the cells on the plate surface begin to reach saturation or maximum density.
Confluence is determined based on image analysis. Image based software can identify objects in the image field base on changes to pixel density in a grey scale image. The software can then assign a mask to those pixels within the object. Objects can be ‘gated’ out based on size and shape. To determine cell confluence, images of cells are first masked as objects. The surface area of the image that is masked is measured and compared to the total surface area of the culture dish surface to obtain a percent confluence.
MDA-231 cancer cells were obtained from ATCC. Cells were cultured in Dulbecco's Modified Eagle Medium (DMEM) supplemented with 10% Fetal Bovine Serum (FBS), 2 mM Glutamax, 1 mM Non Essential Amino Acid (NEAA) solution and 1 mM sodium pyruvate. […] Final DMSO concentrations were […]. Images were acquired with an IncuCyte Live Cell Imaging microscopy (Essen Bioscience) at every 3 h under cell culture conditions with 10× objective over 4-5 d. Cell confluence was calculated from one field of view per well using the IncuCyte in-built algorithm. Relative confluence values were obtained by normalising each value to the time zero value in each sample.

First: CC[C@H]1OC(=O)[C@H](C)[C@@H](O[C@H]2C[C@@](C)(OC)[C@@H](O)[C@H](C)O2)[C@H](C)[C@@H](O[C@@H]2O[C@H](C)C[C@H](N(C)C)[C@H]2O)[C@](C)(O)C[C@@H](C)CN(C(=O)CCCCCCC[P+](C2CCCCC2)(C2CCCCC2)C2CCCCC2)[C@H](C)[C@@H](O)[C@]1(C)O [Example 7, tricyclohexyl({8-[(2R,3S,4R,5R,8R,10R,11R,12S,13S,14R)-11-{[(2S,3R,4S,6R)-4-(dimethylamino)-3-hydroxy-6-methyloxan-2-yl]oxy}-2-ethyl-3,4,10-trihydroxy-13-{[(2R,4R,5S,6S)-5-hydroxy-4-methoxy-4,6-dimethyloxan-2-yl]oxy}-3,5,8,10,12,14-hexamethyl-15-oxo-1-oxa-6-azacyclopentadecan-6-yl]-8-oxooctyl})phosphonium hexafluorophosphate(V)]
Second: CC[C@H]1OC(=O)[C@H](C)[C@@H](O[C@H]2C[C@@](C)(OC)[C@@H](O)[C@H](C)O2)[C@H](C)[C@@H](O[C@@H]2O[C@H](C)C[C@H](N(C)C)[C@H]2O)[C@](C)(O)C[C@@H](C)CN(C(=O)CCCCCCC[P+](C)(C)C)[C@H](C)[C@@H](O)[C@]1(C)O.[Cl-] [Example 25, {8-[(2R,3S,4R,5R,8R,10R,11R,12S,13S,14R)-11-{[(2S,3R,4S,6R)-4-(dimethylamino)-3-hydroxy-6-methyloxan-2-yl]oxy}-2-ethyl-3,4,10-trihydroxy-13-{[(2R,4R,5S,6S)-5-hydroxy-4-methoxy-4,6-dimethyloxan-2-yl]oxy}-3,5,8,10,12,14-hexamethyl-15-oxo-1-oxa-6-azacyclopentadecan-6-yl]-8-oxooctyl}trimethylphosphonium chloride]
The “% Confluence” value of the first is lower: 75.3% for the first, 124% for the second.

First: CC[C@H]1OC(=O)[C@H](C)[C@@H](O[C@H]2C[C@@](C)(OC)[C@@H](O)[C@H](C)O2)[C@H](C)[C@@H](O[C@@H]2O[C@H](C)C[C@H](N(C)C)[C@H]2O)[C@](C)(O)C[C@@H](C)CN(C(=O)CCCCCCCCCCC[PH](c2cc(C)cc(C)c2)(c2cc(C)cc(C)c2)c2cc(C)cc(C)c2)[C@H](C)[C@@H](O)[C@]1(C)O [Example 29, {12-[(2R,3S,4R,5R,8R,10R,11R,12S,13S,14R)-11-{[(2S,3R,4S,6R)-4-(dimethylamino)-3-hydroxy-6-methyloxan-2-yl]oxy}-2-ethyl-3,4,10-trihydroxy-13-{[(2R,4R,5S,6S)-5-hydroxy-4-methoxy-4,6-dimethyloxan-2-yl]oxy}-3,5,8,10,12,14-hexamethyl-15-oxo-1-oxa-6-azacyclopentadecan-6-yl]-12-oxododecyl}tris(3,5-dimethylphenyl)phosphonium chloride]
Second: CC[C@H]1OC(=O)[C@H](C)[C@@H](O[C@H]2C[C@@](C)(OC)[C@@H](O)[C@H](C)O2)[C@H](C)[C@@H](O[C@@H]2O[C@H](C)C[C@H](N(C)C)[C@H]2O)[C@](C)(O)C[C@@H](C)CN(C(=O)CCCCCCCCCCC[PH](c2cccc(C)c2)(c2cccc(C)c2)c2cccc(C)c2)[C@H](C)[C@@H](O)[C@]1(C)O [Example 30, {12-[(2R,3S,4R,5R,8R,10R,11R,12S,13S,14R)-11-{[(2S,3R,4S,6R)-4-(dimethylamino)-3-hydroxy-6-methyloxan-2-yl]oxy}-2-ethyl-3,4,10-trihydroxy-13-{[(2R,4R,5S,6S)-5-hydroxy-4-methoxy-4,6-dimethyloxan-2-yl]oxy}-3,5,8,10,12,14-hexamethyl-15-oxo-1-oxa-6-azacyclopentadecan-6-yl]-12-oxododecyl}tris(3-methylphenyl)phosphonium chloride]
The “% Confluence” value of the first is higher: 4.6% for the first, 4.4% for the second.

First: CC[C@H]1OC(=O)[C@H](C)[C@@H](O[C@H]2C[C@@](C)(OC)[C@@H](O)[C@H](C)O2)[C@H](C)[C@@H](O[C@@H]2O[C@H](C)C[C@H](N(C)C)[C@H]2O)[C@](C)(O)C[C@@H](C)CN(C(=O)CCCCCCC[P+](c2ccccc2)(c2ccccc2)c2ccc(N(C)C)cc2)[C@H](C)[C@@H](O)[C@]1(C)O [Example 19, {8-[(2R,3S,4R,5R,8R,10R,11R,12S,13S,14R)-11-{[(2S,3R,4S,6R)-4-(dimethylamino)-3-hydroxy-6-methyloxan-2-yl]oxy}-2-ethyl-3,4,10-trihydroxy-13-{[(2R,4R,5S,6S)-5-hydroxy-4-methoxy-4,6-dimethyloxan-2-yl]oxy}-3,5,8,10,12,14-hexamethyl-15-oxo-1-oxa-6-azacyclopentadecan-6-yl]-8-oxooctyl}[4-(dimethylamino)phenyl]diphenylphosphonium hexafluorophosphate(V)]
Second: CC[C@H]1OC(=O)[C@H](C)[C@@H](O[C@H]2C[C@@](C)(OC)[C@@H](O)[C@H](C)O2)[C@H](C)[C@@H](O[C@@H]2O[C@H](C)C[C@H](N(C)C)[C@H]2O)[C@](C)(O)C[C@@H](C)CN(C(=O)CCCCCCC[P+](c2ccccc2)(c2ccccc2)c2cnn(C)c2)[C@H](C)[C@@H](O)[C@]1(C)O.[Cl-] [Example 27, {8-[(2R,3S,4R,5R,8R,10R,11R,12S,13S,14R)-11-{[(2S,3R,4S,6R)-4-(dimethylamino)-3-hydroxy-6-methyloxan-2-yl]oxy}-2-ethyl-3,4,10-trihydroxy-13-{[(2R,4R,5S,6S)-5-hydroxy-4-methoxy-4,6-dimethyloxan-2-yl]oxy}-3,5,8,10,12,14-hexamethyl-15-oxo-1-oxa-6-azacyclopentadecan-6-yl]-8-oxooctyl}(1-methyl-1H-pyrazol-4-yl)diphenylphosphonium chloride]
The “% Confluence” value of the first is lower: 10.5% for the first, 123% for the second.

Going from `CC[C@H]1OC(=O)[C@H](C)[C@@H](O[C@H]2C[C@@](C)(OC)[C@@H](O)[C@H](C)O2)[C@H](C)[C@@H](O[C@@H]2O[C@H](C)C[C@H](N(C)C)[C@H]2O)[C@](C)(O)C[C@@H](C)CN(C(=O)CCCCCCCCCCC[P+](C)(C)C)[C@H](C)[C@@H](O)[C@]1(C)O.[Cl-]` [Example 24, {12-[(2R,3S,4R,5R,8R,10R,11R,12S,13S,14R)-11-{[(2S,3R,4S,6R)-4-(dimethylamino)-3-hydroxy-6-methyloxan-2-yl]oxy}-2-ethyl-3,4,10-trihydroxy-13-{[(2R,4R,5S,6S)-5-hydroxy-4-methoxy-4,6-dimethyloxan-2-yl]oxy}-3,5,8,10,12,14-hexamethyl-15-oxo-1-oxa-6-azacyclopentadecan-6-yl]-12-oxododecyl}trimethylphosphonium chloride] to `CC[C@H]1OC(=O)[C@H](C)[C@@H](O[C@H]2C[C@@](C)(OC)[C@@H](O)[C@H](C)O2)[C@H](C)[C@@H](O[C@@H]2O[C@H](C)C[C@H](N(C)C)[C@H]2O)[C@](C)(O)C[C@@H](C)CN(C(=O)CCCCCCCCCCC[PH](c2ccccc2)(c2ccccc2)C2COC2)[C@H](C)[C@@H](O)[C@]1(C)O` [Example 32, {12-[(2R,3S,4R,5R,8R,10R,11R,12S,13S,14R)-11-{[(2S,3R,4S,6R)-4-(dimethylamino)-3-hydroxy-6-methyloxan-2-yl]oxy}-2-ethyl-3,4,10-trihydroxy-13-{[(2R,4R,5S,6S)-5-hydroxy-4-methoxy-4,6-dimethyloxan-2-yl]oxy}-3,5,8,10,12,14-hexamethyl-15-oxo-1-oxa-6-azacyclopentadecan-6-yl]-12-oxododecyl}(oxetan-3-yl)diphenylphosphonium chloride], the “% Confluence” value falls from 140% to 129%.

Compared with `CC[C@H]1OC(=O)[C@H](C)[C@@H](O[C@H]2C[C@@](C)(OC)[C@@H](O)[C@H](C)O2)[C@H](C)[C@@H](O[C@@H]2O[C@H](C)C[C@H](N(C)C)[C@H]2O)[C@](C)(O)C[C@@H](C)CN(CCCCCCCCCC[P+](c2ccc(OC)cc2)(c2ccc(OC)cc2)c2ccc(OC)cc2)[C@H](C)[C@@H](O)[C@]1(C)O.[I-]` [Example 15], `CC[C@H]1OC(=O)[C@H](C)[C@@H](O[C@H]2C[C@@](C)(OC)[C@@H](O)[C@H](C)O2)[C@H](C)[C@@H](O[C@@H]2O[C@H](C)C[C@H](N(C)C)[C@H]2O)[C@](C)(O)C[C@@H](C)CN(C(=O)CCCCCCC[P+](c2ccc(F)cc2)(c2ccc(F)cc2)c2ccc(F)cc2)[C@H](C)[C@@H](O)[C@]1(C)O` [Example 3, {8-[(2R,3S,4R,5R,8R,10R,11R,12S,13S,14R)-11-{[(2S,3R,4S,6R)-4-(dimethylamino)-3-hydroxy-6-methyloxan-2-yl]oxy}-2-ethyl-3,4,10-trihydroxy-13-{[(2R,4R,5S,6S)-5-hydroxy-4-methoxy-4,6-dimethyloxan-2-yl]oxy}-3,5,8,10,12,14-hexamethyl-15-oxo-1-oxa-6-azacyclopentadecan-6-yl]-8-oxooctyl}tris(4-fluorophenyl)phosphonium hexafluorophosphate(V)] is higher in “% Confluence” value: 16.6% for the first, 97.7% for the second.

With `CC[C@H]1OC(=O)[C@H](C)[C@@H](O[C@H]2C[C@@](C)(OC)[C@@H](O)[C@H](C)O2)[C@H](C)[C@@H](O[C@@H]2O[C@H](C)C[C@H](N(C)C)[C@H]2O)[C@](C)(O)C[C@@H](C)CN(C(=O)CCCCC[P+](c2ccccc2)(c2ccccc2)c2cccc(S(=O)(=O)O)c2)[C@H](C)[C@@H](O)[C@]1(C)O.F[P-](F)(F)(F)(F)F` [Example 2, {6-[(2R,3S,4R,5R,8R,10R,11R,12S,13S,14R)-11-{[(2S,3R,4S,6R)-4-(dimethylamino)-3-hydroxy-6-methyloxan-2-yl]oxy}-2-ethyl-3,4,10-trihydroxy-13-{[(2R,4R,5S,6S)-5-hydroxy-4-methoxy-4,6-dimethyloxan-2-yl]oxy}-3,5,8,10,12,14-hexamethyl-15-oxo-1-oxa-6-azacyclopentadecan-6-yl]-6-oxohexyl}diphenyl(3-sulfophenyl)phosphoniumhexafluorophosphate(V)] the “% Confluence” value was 131.8%.
